Holding throughout (type): cell-based
The subject of one assay is MRCVI. In words: ELISA of secreted pro-collagen I alpha 1 (Type I Collagen) from human lung fibroblast MRCVI. The method, then:
(§1) Compounds reconstitution and stock solution: Prior to treatment, DMSO was diluted in PMS until 0,1% DMSO was made. Each compound was solved in 0,1% DMSO (3: 2,5 mg/mL, 1: 2.5 mg/mL, 10: 1 mg/mL, 5: 1mg/mL, 7: 0,6 mg/mL, 16: 1 mg/mL 17: 1 mg/mL, 44: 0,6 mg/mL, 36: 1mg/mL.
(§2) Next the different stock solution with 150 µg and 250 µg of each compound per 1 ml culture solution was made by adding the 0,1% DMSO compound solution in the right amount to culture solution (DMEM with 10% FCS and 1% penicillin-streptomycin).
As cell line MRCV1 was used, which is an immortalized cell line originated from human lung fibroblast, bought in 2001.
The cell line was thawed and cultured in Dulbeco's modified Eagel's medium (DMEM, Gibcon, USA) supplemented with 10% fetal bovine serum (FBS, Gibco, Germany) and 1% penicillin-streptomycin (PS, Gibco, USA) at 37 °C in a humidified atmosphere with 5% CO2 until a sufficient number of cells were culture in T75 culture bottles. After reaching a confluence of 80% to 90%, the cells were separated using trypsin and counted. Next 100.000 cells were planted in each well of a 6 well plate in replicates, washed and the DMEM solution with 150 µg and 250 µg/ml substance/DMEM and DMEM with no substance as control was added.
(§3) After 48h and after 72h 100 µl supernatant of each well was taken, labelled and frozen at -20° degree Celsius. Prior to perform ELISA the medium was depending on the cell line diluted 1:50 or 1:100 with PBS, otherwise the concentration of collagen fibers was too high to be measured.
The medium containing the secretion of the human lung fibroblast MRCVI was collected after 48h and 72h treatment. Secretion of pro-collagen 1 was assessed with human pro-collagen I alpha 1 DuoSet ELISA (R&D systems, USA) To prepare the Elisa plate, Human pro-Collagen I a capture antibody was diluted in ELISA plate-coating buffer at 4µg/mL working concentration. 100 µl of diluted Capture antibody was added to 96-well microplates and incubated over night at room temperature. After three times washing with Wash Buffer, microplates were blocked by adding 300 µl of Reagent Diluent for 1 hour at room temperature. To proceed the ELISA Human pro-collagen I α1 Standards were diluted in Reagent Diluent (range between 31,3 pg/mL - 2000 pg/mL) and 100 µl of standards or conditioned mediums were added to designated wells. Microplates were incubated at room temperature for 2 hours. Human Pro-collagen I α1 Detection Antibody was prepared in Reagent Diluent at […] working concentration and 100 µl of diluted Detection Antibody was applied for 2 hours at room temperature after extensive washing. Then, working solution of Streptavidin-HRP with Reagent Diluent was prepared by diluting 1:40 and added into each well. After 20 minutes at room temperature incubation, microplates were washed and applied with 100 µl of Substrate Solution for 20 minutes followed by Stop Solution after washing. Finally, signals were measured at 450 nm absorbance by PHomo Microplate Reader (Autobio, China) The amount of pro-collagen 1 was quantified by extrapolating the signal into a linear range of a pro-collagen 1 standard curve. Screening compounds were typically tested at concentration of 150 and 250 µg/mL. The dose response data for each compound and the different cell lines were obtained by nonlinear regression analysis using Prism 9 software (GraphPad, La Jolla, USA).
On the technique in general: ELISA stands for enzyme-linked immunosorbent assay.

The next assay has as its system UKE1. In words: ELISA of secreted pro-collagen I alpha 1 (Type I Collagen) from human dermal fibroblasts UKE1. The method, then: as §1, §2
(§4) Three different cell lines were used for the experiments. GM637 is an immortalized cell line originated from human skin fibroblasts, bought in 2001, UKE1 and […] are cell lines originated from human dermal fibroblasts (dog ear) nurtured from patients, between 60 and 80 years old being completely anonymized at the clinic for dermatology, Rostock.
(§5) The cells lines were thawed and were cultured in Dulbeco's modified Eagel's medium (DMEM, Gibcon, USA) supplemented with 10% fetal bovine serum (FBS, Gibco, Germany) and 1% penicillin-streptomycin (PS, Gibco, USA) at 37 °C in a humidified atmosphere with 5% CO2 until a sufficient number of cells were culture in T75 culture bottles. After reaching a confluence of 80% to 90%, the cells were separated using trypsin and counted. Next 100.000 cells were planted in each well of a 6 well plate in replicates, washed and the DMEM solution with 150 µg and 250 µg/ml substance/DMEM and DMEM with no substance as control was added.
as §3
(§6) The media containing the secretion of the different human dermal fibroblasts GM637, UKE1, and HRO159N were collected after 48h and 72h treatment. Secretion of pro-collagen 1 was assessed with human pro-collagen I alpha 1 DuoSet ELISA (R&D systems, USA) To prepare the Elisa plate, Human pro-Collagen I a capture antibody was diluted in ELISA plate-coating buffer at 4µg/mL working concentration. 100 µl of diluted Capture antibody was added to 96-well microplates and incubated over night at room temperature. After three times washing with Wash Buffer, microplates were blocked by adding 300 µl of Reagent Diluent for 1 hour at room temperature. To proceed the ELISA Human pro-collagen I α1 Standards were diluted in Reagent Diluent (range between 31,3 pg/mL - 2000 pg/mL) and 100 µl of standards or conditioned mediums were added to designated wells. Microplates were incubated at room temperature for 2 hours. Human Pro-collagen I α1 Detection Antibody was prepared in Reagent Diluent at […] working concentration and 100 µl of diluted Detection Antibody was applied for 2 hours at room temperature after extensive washing. Then, working solution of Streptavidin-HRP with Reagent Diluent was prepared by diluting 1:40 and added into each well. After 20 minutes at room temperature incubation, microplates were washed and applied with 100 µl of Substrate Solution for 20 minutes followed by Stop Solution after washing. Finally, signals were measured at 450 nm absorbance by PHomo Microplate Reader (Autobio, China) The amount of pro-collagen 1 was quantified by extrapolating the signal into a linear range of a pro-collagen 1 standard curve. Screening compounds were typically tested at concentration of 150 and 250 µg/mL. The dose response data for each compound and the different cell lines were obtained by nonlinear regression analysis using Prism 9 software (GraphPad, La Jolla, USA).

The test system of a further assay is GM637. Briefly: ELISA of secreted pro-collagen I alpha 1 (Type I Collagen) from human dermal fibroblasts GM637. The method, then: as §1, §2, §4, §5, §3, §6
In the next assay the test system is HRO159N. Briefly: ELISA of secreted pro-collagen I alpha 1 (Type I Collagen) from human dermal fibroblasts HRO159N. Conditions: 250 µg. The protocol: as §1, §2, §4, §5, §3, §6

The structures appear in SMILES notation.

Turning to `COc1nn2c(C)nnc2c2ccccc12` [Compound 3, 6-Methoxy-3-methyl-1,2,4-triazolo[3,4-a]phthalazine], the “collagen reduction percentage in comparison to the standard (100 %)” value (from here on “collagen reduction percentage … (100 %)”) is 35% in the assay with MRCVI (48h, 150 µg); 11% in the assay on MRCVI (48h, 250 µg); 17% in the assay with MRCVI (72 h, 150 µg); 5% in the assay with MRCVI (72 h, 250 µg); 96% with UKE1 (48h, 150 µg); 77% in the assay with UKE1 (48h, 250 µg). Moreover, the “collagen reduction percentage … (100 %)” value in the assay on UKE1 (72 h, 150 µg) is 71%; with UKE1 (72 h, 250 µg) it was 52%; in the assay on GM637 (48h, 150 µg), 89%; in the assay with GM637 (48h, 250 µg), 50%; in the assay on GM637 (72 h, 150 µg) it was 37%; with GM637 (72 h, 250 µg) it was 32%. Also, the “collagen reduction percentage … (100 %)” value with HRO159N (48h) is on record as 82%; with HRO159N (72 h), 77%.
For `[2H]C([2H])([2H])c1nnc2c3ccccc3cnn12` [Compound 7, 3-D3-Methyl-1,2,4-triazolo[3,4-a]phthalazine], the “collagen reduction percentage … (100 %)” value in the assay on MRCVI (48h, 150 µg) is reported as 19%; in the assay with MRCVI (48h, 250 µg) it was 9%; in the assay with MRCVI (72 h, 150 µg), 14%; with MRCVI (72 h, 250 µg), 3%; with UKE1 (48h, 150 µg), 79%; in the assay with UKE1 (48h, 250 µg) it was 54%. Further, the “collagen reduction percentage … (100 %)” value amounted to 44% in the assay on UKE1 (72 h, 150 µg); 47% with UKE1 (72 h, 250 µg); 101% in the assay with GM637 (48h, 150 µg); 75% in the assay on GM637 (48h, 250 µg); 43% with GM637 (72 h, 150 µg); 30% with GM637 (72 h, 250 µg). Also, the results for the “collagen reduction percentage … (100 %)” value in the assay with HRO159N (48h) and with HRO159N (72 h) were 43% and 33%, respectively.

The values are drawn from patent publication EP4458358A1, “PYRIDAZINE COMPOUNDS FOR ANTIFIBROTIC THERAPY” (Tietze Chemical Consulting UG, priority 2023, dated 2024).
